Test results from article PMC8287028 (Frontiers in Veterinary Science, 2021).

Legend:
[1] = target: T1, bovine activated Factor X (Bos taurus, UniProt P00743); test: Apixaban-calibrated anti-Xa activity (aXa) chromogenic bioassay on plasma of dosed dogs; assay type: in vivo
T1 construct: purchased Diagnostica Stago STA Liquid anti-Xa
Description: (§1) Coagulation assays were performed on platelet-poor, citrated plasma samples by a reference laboratory (Comparative Coagulation Laboratory, Animal Health Diagnostic Center, Ithaca, NY). […] The assay is configured with a bovine activated Factor X reagent that is added in excess to the test plasma and a chromogenic substrate of Factor Xa (STA Liquid anti-Xa, Diagnostica Stago). Residual, uninhibited Factor Xa cleaves the chromogenic substrate such that the inverse of the color change in the reaction mixture is proportional to the drug concentration in the test plasma. […] A mechanical endpoint method (STA Compact, Diagnostica Stago) and human coagulation reagents were used to measure prothrombin time (Thromboplastin LI, Helena Diagnostics, Beaumont, TX) and activated partial thromboplastin time (Dade Actin FS, Dade Behring, Newark, DE). […] Tissue-factor (1:50,000 final dilution) activated TEG was performed using standard equipment (TEG-5000, Haemonetics, Braintree, MA) as previously reported ([35]), with assays conducted per established guidelines ([36]), with a modification to eliminate the rest time to facilitate rapid sample processing. Thromboelastography assays were conducted by experienced operators using four TEG channels and tracings terminated after maximum amplitude was established. Four values were extracted from TEG tracings: reaction time (R-time), clot formation time (K-time), clot formation angle (alpha), and maximum amplitude (MA).
Pairwise comparisons between continuous variables were conducted with Wilcoxon matched-pairs signed rank test, while comparisons of more than two groups were conducted using the Friedman test with Dunn's post-hoc adjustment. Specifically, the Wilcoxon matched-pairs signed rank tests were used to compare the complete blood count and serum chemistry values between baseline and the +24 h time point. Comparisons of pharmacodynamic variables between baseline values and those at discrete sampling intervals were performed using the Friedman test with Dunn's post-hoc correction for multiple comparisons. […] Alpha was set at 0.05. Statistical analyses were performed using commercial software (Prism 9, GraphPad, La Jolla, CA).

prothrombin time = test: Prothrombin time (PT) on citrated plasma of dosed dogs; assay type: in vivo, dog
Description: as §1, with “plasma. […] Assay controls, consisting of human plasma spiked with apixaban (STA Apixaban Controls, Diagnostica Stago) were analyzed before each batch of test samples to confirm assay performance. The apixaban levels in calibrators and controls are defined by the manufacturer from an internal reference assayed by HPLC-MS.” for “plasma.”
Pairwise comparisons between continuous variables were conducted with Wilcoxon matched-pairs signed rank test, while comparisons of more than two groups were conducted using the Friedman test with Dunn's post-hoc adjustment. […]

citrated whole blood = test: Tissue-factor activated thromboelastography (TF-TEG) on citrated whole blood of dosed dogs; assay type: in vivo, dog
Description: Catheters were flushed with 0.9% saline, without heparin. […] Coagulation assays were performed on platelet-poor, citrated plasma samples by a reference laboratory (Comparative Coagulation Laboratory, Animal Health Diagnostic Center, Ithaca, NY). […] Residual, uninhibited Factor Xa cleaves the chromogenic substrate such that the inverse of the color change in the reaction mixture is proportional to the drug concentration in the test plasma. […] Assay controls, consisting of human plasma spiked with apixaban (STA Apixaban Controls, Diagnostica Stago) were analyzed before each batch of test samples to confirm assay performance. The apixaban levels in calibrators and controls are defined by the manufacturer from an internal reference assayed by HPLC-MS. […] A mechanical endpoint method (STA Compact, Diagnostica Stago) and human coagulation reagents were used to measure prothrombin time (Thromboplastin LI, Helena Diagnostics, Beaumont, TX) and activated partial thromboplastin time (Dade Actin FS, Dade Behring, Newark, DE). […] Tissue-factor (1:50,000 final dilution) activated TEG was performed using standard equipment (TEG-5000, Haemonetics, Braintree, MA) as previously reported ([35]), with assays conducted per established guidelines ([36]), with a modification to eliminate the rest time to facilitate rapid sample processing. Thromboelastography assays were conducted by experienced operators using four TEG channels and tracings terminated after maximum amplitude was established. Four values were extracted from TEG tracings: reaction time (R-time), clot formation time (K-time), clot formation angle (alpha), and maximum amplitude (MA). Pairwise comparisons between continuous variables were conducted with Wilcoxon matched-pairs signed rank test, while comparisons of more than two groups were conducted using the Friedman test with Dunn's post-hoc adjustment. Specifically, the Wilcoxon matched-pairs signed rank tests were used to compare the complete blood count and serum chemistry values between baseline and the +24 h time point. Comparisons of pharmacodynamic variables between baseline values and those at discrete sampling intervals were performed using the Friedman test with Dunn's post-hoc correction for multiple comparisons. […] Alpha was set at 0.05. Statistical analyses were performed using commercial software (Prism 9, GraphPad, La Jolla, CA).

major plasma proteins = test: Protein binding by ex vivo ultrafiltration of spiked plasma, LC/MS; assay type: in vitro ADME, dog
Description: For each dog a sample of anticoagulated platelet-poor plasma collected at baseline was centrifuged (16,000 g, 5 min, 4°C) and the supernatant filtered with a […] syringe filter. […] One aliquot was centrifuged (16,000 g, 30 min, 4°C) in a molecular exclusion device (Amicon Ultra 30k filter, Millipore-Sigma) to remove the major plasma proteins. The spiked plasma and the ultrafiltrate were then analyzed for apixaban by LC/MS as above. Protein binding (%) was determined as: [Total concentration] – [[…] Unbound concentration]/Total concentration ×100.

T1 sequence (P00743 234-492 limits assumed): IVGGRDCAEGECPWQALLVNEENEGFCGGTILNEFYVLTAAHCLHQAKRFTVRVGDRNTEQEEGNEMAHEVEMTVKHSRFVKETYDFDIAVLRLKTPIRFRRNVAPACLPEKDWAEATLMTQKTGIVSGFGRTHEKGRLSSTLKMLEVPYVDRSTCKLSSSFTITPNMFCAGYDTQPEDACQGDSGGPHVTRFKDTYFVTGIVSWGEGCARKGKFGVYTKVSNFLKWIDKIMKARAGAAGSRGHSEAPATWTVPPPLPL
T1 sequence (P00743 41-180 limits assumed): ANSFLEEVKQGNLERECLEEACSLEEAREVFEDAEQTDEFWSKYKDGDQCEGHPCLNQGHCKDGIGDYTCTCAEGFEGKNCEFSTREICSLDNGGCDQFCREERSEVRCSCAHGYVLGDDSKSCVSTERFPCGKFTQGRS

COc1ccc(-n2nc(C(N)=O)c3c2C(=O)N(c2ccc(N4CCCCC4=O)cc2)CC3)cc1 [apixaban]
mean aXa activity following intravenous injection ([1]; IV 0.18 mg/kg, at mean plasma concentration […]): 650 ng/mL | Emax (anti-Xa activity) ([1]; IV, mean dose 0.18 mg/kg, model E=(Emax x C)/(C+EC50)): 1400.5 ng/mL | mean aXa activity compared with human values ([1]; PO 0.2 mg/kg): remained below values typically observed for human moderate to high dose anticoagulant effect | aXa corresponding to the mean maximum observed plasma concentration ([1]; PO 0.2 mg/kg, 6 h post-dosing): 128 ng/mL | time of peak aXa activity ([1]; following oral administration 0.2 mg/kg): approximately 5 h | PT versus baseline (prothrombin time; IV 0.18 mg/kg, at 5, 15, 30 and 60 min): significantly prolonged | concentration required to double the PT from baseline (prothrombin time; IV, estimate from the regression equation line of Figure 2B): 2,485 ng/ml | PT versus baseline (prothrombin time; PO 0.2 mg/kg, at 4, 6 and 8 h): significantly prolonged | TF-TEG K-time versus baseline (citrated whole blood; IV 0.18 mg/kg, at 5 min): significantly different from baseline | TF-TEG R-time versus baseline (citrated whole blood; IV 0.18 mg/kg, at 5 min): significantly different from baseline | TF-TEG alpha angle versus baseline (citrated whole blood; IV 0.18 mg/kg, at 5 min): significantly different from baseline | TF-TEG R-time versus baseline (citrated whole blood; IV 0.18 mg/kg, at 15 min ([…])): significantly prolonged | TF-TEG tracings (citrated whole blood; PO 0.2 mg/kg): not consistently affected | TF-TEG R-time versus baseline (citrated whole blood; PO 0.2 mg/kg, at the 12-h timepoint): significantly different from baseline | fraction unbound at 500 ng/ml (major plasma proteins; both sexes, mixed-breed, platelet-poor plasma, dog plasma spiked at 500 ng/ml, ultrafiltration, mean of 6 dogs, using 7 ng/ml for the deproteinated samples): 0.014 | apixaban concentration in deproteinated samples (major plasma proteins; ultrafiltrate of dog plasma spiked at 500 ng/ml, all samples): < 7 ng/mL
